The nature of series [1]: Water solubility was determined at pH 4. Format: ADME.
Series [2] in a line: Water solubility was determined at pH 5. It counts as ADME.
Series [3] in a line: Water solubility was determined at pH 6. It counts as ADME.
Series [4] deals with T1, Calpain-1 catalytic subunit (Sus scrofa, UniProt P35750).
T1 sequence (P35750 whole entry): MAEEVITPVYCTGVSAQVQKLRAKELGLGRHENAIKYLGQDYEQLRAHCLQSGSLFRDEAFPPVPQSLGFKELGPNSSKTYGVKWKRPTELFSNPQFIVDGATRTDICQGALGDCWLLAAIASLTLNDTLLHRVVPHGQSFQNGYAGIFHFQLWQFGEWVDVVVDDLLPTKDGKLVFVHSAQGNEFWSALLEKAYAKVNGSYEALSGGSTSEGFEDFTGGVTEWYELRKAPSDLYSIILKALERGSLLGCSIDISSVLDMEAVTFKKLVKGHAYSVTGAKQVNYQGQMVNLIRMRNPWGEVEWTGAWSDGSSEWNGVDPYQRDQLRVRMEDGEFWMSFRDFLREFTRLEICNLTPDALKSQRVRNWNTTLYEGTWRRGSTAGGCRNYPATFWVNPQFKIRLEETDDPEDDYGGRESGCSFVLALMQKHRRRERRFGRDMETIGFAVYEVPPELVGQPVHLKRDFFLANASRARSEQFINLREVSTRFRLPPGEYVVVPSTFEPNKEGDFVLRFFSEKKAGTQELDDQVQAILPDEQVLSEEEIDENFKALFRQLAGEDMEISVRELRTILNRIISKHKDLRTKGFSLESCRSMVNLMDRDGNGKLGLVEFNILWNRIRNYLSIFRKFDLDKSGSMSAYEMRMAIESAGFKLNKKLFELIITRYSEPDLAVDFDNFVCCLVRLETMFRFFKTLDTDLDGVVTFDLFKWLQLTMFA
In words: Tested for inhibitory activity against porcine erythrocyte Mu-calpain.

Series [5] can be described thus: Water solubility was determined at pH 7. Format: ADME.

Each structure is given as a SMILES string. Values after ≈ are worked out from the molar mass of the structure shown. Where only a bound is given, the exact number is not on record here.

These results are taken from ChEMBL document CHEMBL1135857, “Exploration of peptidyl hydrazones as water-soluble calpain inhibitors” (Bioorg Med Chem Lett, 2002).

What is called solubility is how much of the substance goes into solution per volume. Low readings indicate a poorly soluble substance, high ones a readily soluble substance. What is called IC50 is the concentration that inhibits the measured activity by half. High values mean lower potency, low ones higher potency.

Turning to `CC(C)[C@H](NS(=O)(=O)c1ccc(F)cc1)C(=O)NC/C=N/N1CCOCC1`, the solubility came to 1260 µg/mL (≈ 3150 µM) in series [1], 840 µg/mL (≈ 2100 µM) in series [2], 692 µg/mL (≈ 1730 µM) in series [3] and 667 µg/mL (≈ 1670 µM) in series [5]. Further, the half-inhibitory concentration (IC50) in series [4] turned out to be 6.2 µM.

Turning to `CC(C)C[C@@H](/C=N/NC(N)=O)NC(=O)[C@@H](NS(=O)(=O)c1ccc(F)cc1)C(C)C`, the solubility in series [1] was 433 µg/mL (≈ 1010 µM). In addition, the IC50 in series [4] came out at 0.68 µM.

As for `CC(C)[C@H](NS(=O)(=O)c1ccc(F)cc1)C(=O)NC/C=N/NC(=O)CN(C)C`, the solubility in series [1], in series [2], in series [3] and in series [5] was > 5000 µg/mL throughout. Further, in series [4], the IC50 is > 10 µM.

As for `CC(C)C[C@@H](C=O)NC(=O)[C@@H](NS(=O)(=O)c1ccc(F)cc1)C(C)C`, the values for the solubility in series [1], in series [3] and in series [5] were 102 µg/mL (≈ 274 µM), 100 µg/mL (≈ 268 µM) and 105 µg/mL (≈ 282 µM), respectively. Besides, the IC50 in series [4] came out at 0.035 µM.

For the molecule `CC(C)C[C@@H](/C=N/NCCO)NC(=O)[C@@H](NS(=O)(=O)c1ccc(F)cc1)C(C)C`, the solubility in series [1] was determined as 228 µg/mL (≈ 530 µM); in series [2] it was 234 µg/mL (≈ 543 µM); in series [3], 226 µg/mL (≈ 525 µM); in series [5], 293 µg/mL (≈ 681 µM). This molecule also came in with an IC50 in series [4] of 0.19 µM.

As to `CC(C)C[C@@H](/C=N/N1CCOCC1)NC(=O)[C@@H](NS(=O)(=O)c1ccc(F)cc1)C(C)C`, the solubility in series [1] amounted to 67.3 µg/mL (≈ 147 µM); in series [2], 63.3 µg/mL (≈ 139 µM); in series [3], 60.8 µg/mL (≈ 133 µM); in series [5] it was 58.2 µg/mL (≈ 127 µM). Further, in series [4], it took 0.79 µM to reach half-maximal inhibition (IC50).
